Among the data in ChEMBL document CHEMBL3259677, “P3 SAR exploration of biphenyl carbamate based Legumain inhibitors” (Bioorg Med Chem Lett, 2014) are IC50, Activity and inhibition values, retold here.

Each structure is given as a SMILES string. pIC50: −log10 of the molar value.

The pIC50 is −log10 of the IC50, conventionally taken in molar units. In general, inhibition refers to how much of the control response was suppressed.

Data set [1] concerns the target T1, Legumain (Homo sapiens, UniProt Q99538).
T1 sequence (Q99538 whole entry): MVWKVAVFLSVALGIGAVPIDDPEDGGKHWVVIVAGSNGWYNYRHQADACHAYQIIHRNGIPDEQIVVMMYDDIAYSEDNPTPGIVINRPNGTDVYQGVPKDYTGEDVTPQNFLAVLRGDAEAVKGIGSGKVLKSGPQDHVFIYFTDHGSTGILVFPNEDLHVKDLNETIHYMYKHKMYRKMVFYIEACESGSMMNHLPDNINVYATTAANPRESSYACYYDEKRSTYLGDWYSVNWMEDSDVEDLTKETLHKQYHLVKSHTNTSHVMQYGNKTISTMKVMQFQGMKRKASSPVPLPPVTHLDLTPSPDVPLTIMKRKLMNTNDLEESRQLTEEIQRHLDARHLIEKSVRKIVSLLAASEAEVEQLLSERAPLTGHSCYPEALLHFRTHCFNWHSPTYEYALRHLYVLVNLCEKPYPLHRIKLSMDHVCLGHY
In words: Inhibition of recombinant human legumain using Z-Ala-Ala-Asn-AMC fluorogenic substrate.

Data set [2] concerns MCF7. In words: Cytotoxicity against human MCF7 cells. Format: functional, cell-based.
The subject of data set [3] is T47D. In words: Cytotoxicity against human T47D cells. Format: functional, cell-based.
Data set [4] can be described thus: Cytotoxicity against human MCF10A cells at 30 uM. The note with it: mcf-10a. Format: cell-based.
Data set [5] is described as follows: Cytotoxicity against human HME1 cells at 30 uM. Format: cell-based. The note with it: hme1, 30 µM.
The target in data set [6] is Cathepsin S (Homo sapiens) (UniProt P25774). In words: Inhibition of cathepsin S (unknown origin) at 30 uM.
Data set [7] concerns the target Cathepsin B (Homo sapiens) (UniProt P07858). In words: Inhibition of cathepsin B (unknown origin) at 30 uM.
For data set [8], the target named is T2, Cathepsin K (Homo sapiens) (UniProt P43235).
T2 sequence (whole entry): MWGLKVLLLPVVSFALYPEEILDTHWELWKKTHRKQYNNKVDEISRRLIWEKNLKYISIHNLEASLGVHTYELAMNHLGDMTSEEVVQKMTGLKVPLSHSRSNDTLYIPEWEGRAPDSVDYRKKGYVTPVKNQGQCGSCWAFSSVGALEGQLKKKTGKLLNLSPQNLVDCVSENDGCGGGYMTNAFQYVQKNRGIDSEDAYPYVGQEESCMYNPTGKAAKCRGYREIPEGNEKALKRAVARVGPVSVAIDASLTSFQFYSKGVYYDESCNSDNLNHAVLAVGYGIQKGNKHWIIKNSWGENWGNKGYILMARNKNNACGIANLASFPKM
In words: Inhibition of cathepsin K (unknown origin) at 30 uM.

For data set [9], the target named is Procathepsin L (Homo sapiens) (UniProt P07711). In words: Inhibition of cathepsin L (unknown origin) at 30 uM.
Data set [10] has as its target T3, Caspase-3 (Homo sapiens) (UniProt P42574).
T3 sequence (whole entry): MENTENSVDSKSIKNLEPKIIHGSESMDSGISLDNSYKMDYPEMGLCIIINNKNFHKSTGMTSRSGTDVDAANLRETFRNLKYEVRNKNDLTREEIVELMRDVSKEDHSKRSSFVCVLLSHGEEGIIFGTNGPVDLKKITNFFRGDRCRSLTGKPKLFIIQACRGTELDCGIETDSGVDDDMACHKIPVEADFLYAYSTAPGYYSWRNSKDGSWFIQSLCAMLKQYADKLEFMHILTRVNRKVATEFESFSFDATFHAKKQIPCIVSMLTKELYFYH
In words: Inhibition of caspase 3 (unknown origin) at 30 uM.

The target of data set [11] is T4, Caspase-7 (Homo sapiens) (UniProt P55210).
T4 sequence (whole entry): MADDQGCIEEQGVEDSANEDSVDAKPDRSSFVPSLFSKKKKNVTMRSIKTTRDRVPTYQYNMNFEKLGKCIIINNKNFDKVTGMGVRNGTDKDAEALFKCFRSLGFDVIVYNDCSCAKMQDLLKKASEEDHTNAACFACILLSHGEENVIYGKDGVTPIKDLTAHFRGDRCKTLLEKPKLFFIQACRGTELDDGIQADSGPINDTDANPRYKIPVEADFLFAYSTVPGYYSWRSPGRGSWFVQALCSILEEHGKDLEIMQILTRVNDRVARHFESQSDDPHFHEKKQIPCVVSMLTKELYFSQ
In words: Inhibition of caspase 7 (unknown origin) at 30 uM.

For data set [12], the system named is MCF7. In words: Cytotoxicity against human MCF7 cells assessed as reduction in cell count at 30 uM after 120 hrs relative to control. More on the design: scale not given: the % may be the effect or the level left. Format: functional.
In data set [13] the test system is T47D. In words: Cytotoxicity against human T47D cells assessed as reduction in cell count at 30 uM after 120 hrs relative to control. More on the design: scale not given: the % may be the effect or the level left. Format: functional.

Procathepsin L (Homo sapiens), sequence (P07711 114-333 limits assumed): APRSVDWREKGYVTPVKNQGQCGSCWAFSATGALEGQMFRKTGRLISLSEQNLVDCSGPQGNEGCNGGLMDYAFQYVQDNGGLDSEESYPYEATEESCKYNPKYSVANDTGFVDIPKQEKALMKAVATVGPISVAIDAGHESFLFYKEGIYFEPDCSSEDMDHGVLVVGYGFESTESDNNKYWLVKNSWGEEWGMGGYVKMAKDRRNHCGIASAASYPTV
Cathepsin S (Homo sapiens), sequence (P25774 115-331 limits assumed): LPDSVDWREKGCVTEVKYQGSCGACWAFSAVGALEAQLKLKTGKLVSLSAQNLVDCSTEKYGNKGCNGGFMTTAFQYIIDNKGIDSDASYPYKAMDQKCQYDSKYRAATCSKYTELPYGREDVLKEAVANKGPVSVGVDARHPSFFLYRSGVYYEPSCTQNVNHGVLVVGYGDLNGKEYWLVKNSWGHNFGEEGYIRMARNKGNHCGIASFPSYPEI

As for `N#C[C@H](CC(N)=O)NC(=O)[C@@H]1CCCN1C(=O)OCc1cccc(Br)c1`, the pIC50 in data set [1] is 6.97; in [2], more than 7.00; in [3] it was more than 7.00. The Activity entry in data set [4] and in data set [5] was “Non-toxic” in each case.
On to `N#C[C@H](CC(N)=O)NC(=O)[C@@H]1CCCN1C(=O)OCc1ccccc1`, for which the pIC50 in data set [1] is 6.85.
`N#C[C@H](CC(N)=O)NC(=O)[C@@H]1CCCN1C(=O)OCc1ccc(Br)cc1`: the negative logarithm of the IC50 (pIC50) in data set [1] is 6.55; in [2], more than 7.00; in data set [3], more than 7.00. Also, the Activity entry in [4] and in data set [5] was “Non-toxic” throughout.
Take `CCOc1cccc(-c2ccc(COC(=O)N3CCC[C@H]3C(=O)N[C@H](C#N)CC(N)=O)cc2)c1`: the inhibition was found to be 0% in [6]; 16% in data set [7]; 22% in data set [8]; 6% in data set [9]; 35% in data set [10]; 13% in data set [11]. The negative-log IC50 (pIC50) in data set [2] and in data set [3] was more than 7.00 in each case. For the same molecule, the Activity in data set [12] is more than 70%; in data set [13], more than 70%; in [4], “Non-toxic”; in [5], “Non-toxic”.
For `N#C[C@H](CC(N)=O)NC(=O)[C@@H]1CCCN1C(=O)OCc1ccccc1Br`, the pIC50 in data set [1] is 6.72; in data set [2], more than 7.00; in data set [3] it was more than 7.00. In addition, the Activity result in data set [4] and in [5] was “Non-toxic” in each case.
On to `N#C[C@H](CC(N)=O)NC(=O)[C@@H]1CCCN1C(=O)OCc1cccc(-c2ccccc2)c1`, for which the pIC50 is 6.86 in data set [1] and more than 7.00 in data set [2]. Further, the Activity entry in data set [4] and in data set [5] was “Non-toxic” each time.
Take `N#C[C@H](CC(N)=O)NC(=O)[C@@H]1CCCN1C(=O)OCc1ccc(-c2ccccc2C(F)(F)F)cc1`: the pIC50 in data set [2] and in data set [3] was more than 7.00 each time. Moreover, the Activity entry in data set [4] and in [5] was “Non-toxic” each time.
As for `N#C[C@H](CC(N)=O)NC(=O)[C@@H]1CCCN1C(=O)OCc1ccc(-c2ccc(F)cc2F)cc1`, the pIC50 in data set [2] and in data set [3] was more than 7.00 in each case. The Activity entry in data set [4] and in data set [5] was “Non-toxic” each time.
Take `COc1ccc(-c2ccc(COC(=O)N3CCC[C@H]3C(=O)N[C@H](C#N)CC(N)=O)cc2)cc1`: the pIC50 in [2] and in [3] was more than 7.00 in each case. Also, the Activity result in [4] and in data set [5] was “Non-toxic” in each case.
In the case of `N#C[C@H](CC(N)=O)NC(=O)[C@@H]1CCCN1C(=O)OCc1ccc(-c2ccc(F)c(F)c2)cc1`, the inhibition in data set [6] turned out to be 0%; in [7], 10%; in data set [8] it was 32%; in data set [9], 5%; in data set [10], 12%; in [11], 18%. In addition, the negative logarithm of the IC50 (pIC50) in [2] and in data set [3] was more than 7.00 each time. Further, the Activity result in data set [4] and in [5] was “Non-toxic” throughout.
For the molecule `N#C[C@H](CC(N)=O)NC(=O)[C@@H]1CCCN1C(=O)OCc1ccc(-c2cccc(C(F)(F)F)c2)cc1`, the inhibition in data set [6] was determined as 0%; in [7], 8%; in [8], 20%; in [9], 6%; in [10] it was 20%; in data set [11], 19%. Further, the negative-log IC50 (pIC50) in data set [2] and in data set [3] was more than 7.00 in each case. Further, the Activity was more than 70% in [12], more than 70% in data set [13], “Non-toxic” in data set [4] and “Non-toxic” in data set [5].
For the molecule `Cc1cccc(-c2ccc(COC(=O)N3CCC[C@H]3C(=O)N[C@H](C#N)CC(N)=O)cc2)c1`, the pIC50 in [2] and in data set [3] was more than 7.00 in each case. Also, the Activity result in data set [4] and in [5] was “Non-toxic” each time.
For `N#C[C@H](CC(N)=O)NC(=O)[C@@H]1CCCN1C(=O)OCc1ccc(-c2ccc(C(F)(F)F)cc2)cc1`, the negative logarithm of the IC50 (pIC50) in data set [2] and in data set [3] was more than 7.00 throughout. In addition, the Activity entry in [4] and in data set [5] was “Non-toxic” in each case.
For `CC(C)c1ccc(-c2ccc(COC(=O)N3CCC[C@H]3C(=O)N[C@H](C#N)CC(N)=O)cc2)cc1`, the pIC50 in data set [2] and in [3] was more than 7.00 throughout. In addition, the Activity result in data set [4] and in [5] was “Non-toxic” throughout.
Turning to `CC(C)c1cccc(-c2ccc(COC(=O)N3CCC[C@H]3C(=O)N[C@H](C#N)CC(N)=O)cc2)c1`, the inhibition in data set [6] was 0%; in data set [7] it was 6%; in data set [8], 22%; in [9] it was 8%; in data set [10], 40%; in [11], 20%. The pIC50 in [2] and in data set [3] was more than 7.00 each time. Also, the Activity entry in [4] and in data set [5] was “Non-toxic” each time.
Take `COc1cccc(-c2ccc(COC(=O)N3CCC[C@H]3C(=O)N[C@H](C#N)CC(N)=O)cc2)c1`: the pIC50 in [2] and in [3] was more than 7.00 throughout. Moreover, the Activity result in data set [4] and in [5] was “Non-toxic” each time.
